Patent publication US20230112418A1, “COMPOUND AND RADIOACTIVE LABELING COMPOUND” (NIHON MEDI-PHYSICS CO., LTD., priority 2020, published 2023)

Legend:
[1] = tested on: LNCaP tumor transplanted mice; assay: In vivo radioactivity distribution using LNCaP tumor transplanted mice
Protocol: Animal experiments were performed in accordance with the guidelines of Kyoto University Animal Experiment Committee. Male CB17/IcrJcl-Prkdc^scid mice were purchased from CLEA Japan, Inc. The animals were raised under 12 h/12 h day/night cycle conditions and freely fed with food and water. LNCaP cells (1.0×10^7 cells/mouse) or PC-3 cells (1.0×10^7 cells/mouse) were suspended in a mixed liquid (1:1,150 μL) of PBS and Matrigel manufactured by Corning Life Sciences Inc., and the suspension was subcutaneously transplanted to the right shoulder of each of the mice under isoflurane anesthesia. Thereafter, the mice were raised for 40 to 60 days.
A saline solution (185 kBq, 100 μL) of [^111In]In-PSMA-DA1 or [^111In]In-PSMA-DB was injected into each of LNCaP or PC-3 tumor transplanted mice via the tail vein thereof (n=3 in each group). The mice were euthanized 1, 4, 24, 48, 96, and 192 hours after the injection. Thereafter, blood and organs were collected, and the mass and radioactivity of each of the organs were measured.
A result thereof is indicated as a value (% ID/g) obtained by dividing the percentage (% ID) of the amount of radioactivity with respect to the amount of injected radioactivity (injected dose) by the mass of blood or the mass of an organ (g). […]

[2] = tested on: LNCaP cells (PSMA positive); assay: Evaluation of binding using cultured cells (LNCaP); type: cell-based, human; conditions: FIG. 4
Protocol: LNCaP cells (PSMA positive, human prostate cancer) and PC-3 cells (PSMA negative, human prostate cancer) were used. These cells were purchased from American Type Culture Collection and DS Biomedical, respectively. The LNCaP cells and the PC-3 cells were each cultured in RPMI 1640 containing antibiotics (penicillin and streptomycin) and 10% inactivated fetal bovine serum, manufactured by Nacalai Tesque, Inc. at 37° C. under 5% CO2.
The LNCaP cells and the PC-3 cells were each seeded in a 12 well plate at 4.0×10^5 cells/well, and allowed to stand at 37° C. under 5% CO2 for 48 hours.
The culture medium was removed, and an assay medium (0.5% FBS-containing RPMI 1640 medium) solution (1 mL) containing [^111In]In-PSMA-DA1 or [^111In]In-PSMA-DB (37 kBq) was added to the residue. Thereafter, the plate was allowed to stand at 37° C. under 5% CO2 for one hour. […]
The radioactivity of each of the assay medium and the cell lysate was measured with a gamma counter. Separately from this, the total protein concentration in the cell lysate was calculated using a BCA Protein Assay Kit manufactured by Thermo Fisher Scientific. A value (% ID/mg protein) obtained by dividing the percentage (% ID) of the amount of radioactivity of a sample to the amount of added radioactivity by the total protein mass was calculated for each sample.
Data was expressed as mean±standard deviation. […]

[3] = molecular target: human serum albumin (HSA) (Homo sapiens, UniProt P02768); assay: Evaluation of binding to albumin (spin column), HSA solution and PBS; conditions: FIG. 5
Chain of human serum albumin (HSA) (P02768 25-609): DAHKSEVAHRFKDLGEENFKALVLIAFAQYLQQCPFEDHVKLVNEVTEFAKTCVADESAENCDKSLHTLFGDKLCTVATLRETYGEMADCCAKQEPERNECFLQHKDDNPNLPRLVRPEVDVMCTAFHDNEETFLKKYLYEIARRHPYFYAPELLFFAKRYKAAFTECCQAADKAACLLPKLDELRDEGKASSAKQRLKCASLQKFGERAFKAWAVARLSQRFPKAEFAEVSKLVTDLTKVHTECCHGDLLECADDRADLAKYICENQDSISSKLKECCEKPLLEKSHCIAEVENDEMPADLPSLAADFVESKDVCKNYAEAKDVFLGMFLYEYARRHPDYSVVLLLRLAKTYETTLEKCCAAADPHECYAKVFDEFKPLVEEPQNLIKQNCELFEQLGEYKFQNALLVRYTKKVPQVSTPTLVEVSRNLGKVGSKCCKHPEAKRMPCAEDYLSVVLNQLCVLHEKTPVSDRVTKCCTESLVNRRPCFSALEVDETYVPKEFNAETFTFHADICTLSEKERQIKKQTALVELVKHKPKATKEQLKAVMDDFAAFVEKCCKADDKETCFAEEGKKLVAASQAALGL
Protocol: Thereafter, the reaction liquid was added to a spin column (Sephadex G-100 manufactured by Cytiva), and centrifuged at 1500×g at 4° C. for two minutes. After the separation, the radioactivity of each of the column and the eluate was measured with a gamma counter.
Data was expressed as mean±standard deviation. A significant difference test was performed using Student's t-test, and a result of p<0.05 was defined to have a significant difference.
The higher a value, the higher binding property to albumin.
Thereafter, the reaction liquid was added to a spin column (Sephadex G-100 manufactured by Cytiva), and centrifuged at 1500×g at 4° C. for two minutes. After the centrifugation, the radioactivity of each of the column and the eluate was measured with a gamma counter.

Accumulation: Blood ([1]; 1 hour after injection): 3.33 ± 0.21 % ID/g
Accumulation: Brain ([1]; 1 hour after injection): 0.06 ± 0.01 % ID/g
Accumulation: Heart ([1]; 1 hour after injection): 0.87 ± 0.33 % ID/g
Accumulation: Intestinal ([1]; 1 hour after injection): 0.59 ± 0.14 % ID/g
Accumulation: Kidney ([1]; 1 hour after injection): 59.2 ± 35.2 % ID/g
Accumulation: LNCaP tumor ([1]; 1 hour after injection): 3.36 ± 0.04 % ID/g
Accumulation: Liver ([1]; 1 hour after injection): 0.91 ± 0.20 % ID/g
Accumulation: Lung ([1]; 1 hour after injection): 2.24 ± 0.60 % ID/g
Accumulation: Muscle ([1]; 1 hour after injection): 0.23 ± 0.68 % ID/g
Accumulation: Pancreas ([1]; 1 hour after injection): 0.74 ± 0.25 % ID/g
Accumulation: Spleen ([1]; 1 hour after injection): 3.05 ± 0.53 % ID/g
Accumulation: Stomach ([1]; 1 hour after injection): 0.10 ± 0.04 % ID
Accumulation: Blood ([1]; 4 hours after injection): 2.00 ± 0.29 % ID/g
Accumulation: Brain ([1]; 4 hours after injection): 0.05 ± 0.00 % ID/g
Accumulation: Heart ([1]; 4 hours after injection): 0.60 ± 0.08 % ID/g
Accumulation: Intestinal ([1]; 4 hours after injection): 1.05 ± 0.10 % ID/g
Accumulation: Kidney ([1]; 4 hours after injection): 22.7 ± 9.69 % ID/g
Accumulation: LNCaP tumor ([1]; 4 hours after injection): 2.50 ± 0.50 % ID/g
Accumulation: Liver ([1]; 4 hours after injection): 0.95 ± 0.05 % ID/g
Accumulation: Lung ([1]; 4 hours after injection): 1.56 ± 0.07 % ID/g
Accumulation: Muscle ([1]; 4 hours after injection): 0.21 ± 0.04 % ID/g
Accumulation: Pancreas ([1]; 4 hours after injection): 0.54 ± 0.22 % ID/g
Accumulation: Spleen ([1]; 4 hours after injection): 2.39 ± 0.05 % ID/g
Accumulation: Stomach ([1]; 4 hours after injection): 0.13 ± 0.03 % ID
Accumulation: Blood ([1]; 24 hours after injection): 0.68 ± 0.17 % ID/g
Accumulation: Brain ([1]; 24 hours after injection): 0.07 ± 0.02 % ID/g
Accumulation: Heart ([1]; 24 hours after injection): 0.43 ± 0.07 % ID/g
Accumulation: Intestinal ([1]; 24 hours after injection): 1.00 ± 0.44 % ID/g
Accumulation: Kidney ([1]; 24 hours after injection): 13.2 ± 2.41 % ID/g
Accumulation: LNCaP tumor ([1]; 24 hours after injection): 2.09 ± 0.39 % ID/g
Accumulation: Liver ([1]; 24 hours after injection): 1.55 ± 0.32 % ID/g
Accumulation: Lung ([1]; 24 hours after injection): 0.97 ± 0.15 % ID/g
Accumulation: Muscle ([1]; 24 hours after injection): 0.21 ± 0.07 % ID/g
Accumulation: Pancreas ([1]; 24 hours after injection): 0.71 ± 0.10 % ID/g
Accumulation: Spleen ([1]; 24 hours after injection): 3.37 ± 0.75 % ID/g
Accumulation: Stomach ([1]; 24 hours after injection): 0.16 ± 0.05 % ID
Accumulation: Blood ([1]; 48 hours after injection): 0.27 ± 0.16 % ID/g
Accumulation: Brain ([1]; 48 hours after injection): 0.03 ± 0.02 % ID/g
Accumulation: Heart ([1]; 48 hours after injection): 0.32 ± 0.05 % ID/g
Accumulation: Intestinal ([1]; 48 hours after injection): 0.79 ± 0.21 % ID/g
Accumulation: Kidney ([1]; 48 hours after injection): 8.58 ± 2.02 % ID/g
Accumulation: LNCaP tumor ([1]; 48 hours after injection): 1.69 ± 0.77 % ID/g
Accumulation: Liver ([1]; 48 hours after injection): 1.28 ± 0.16 % ID/g
Accumulation: Lung ([1]; 48 hours after injection): 0.66 ± 0.24 % ID/g
Accumulation: Muscle ([1]; 48 hours after injection): 0.15 ± 0.06 % ID/g
Accumulation: Pancreas ([1]; 48 hours after injection): 0.71 ± 0.17 % ID/g
Accumulation: Spleen ([1]; 48 hours after injection): 2.63 ± 0.83 % ID/g
Accumulation: Stomach ([1]; 48 hours after injection): 0.07 ± 0.02 % ID
Accumulation: Blood ([1]; 96 hours after injection): 0.14 ± 0.04 % ID/g
Accumulation: Brain ([1]; 96 hours after injection): 0.09 ± 0.05 % ID/g
Accumulation: Heart ([1]; 96 hours after injection): 0.40 ± 0.12 % ID/g
Accumulation: Intestinal ([1]; 96 hours after injection): 0.41 ± 0.17 % ID/g
Accumulation: Kidney ([1]; 96 hours after injection): 7.04 ± 3.28 % ID/g
Accumulation: LNCaP tumor ([1]; 96 hours after injection): 1.05 ± 0.03 % ID/g
Accumulation: Liver ([1]; 96 hours after injection): 1.59 ± 0.57 % ID/g
Accumulation: Lung ([1]; 96 hours after injection): 0.70 ± 0.15 % ID/g
Accumulation: Muscle ([1]; 96 hours after injection): 0.14 ± 0.08 % ID/g
Accumulation: Pancreas ([1]; 96 hours after injection): 0.85 ± 0.39 % ID/g
Accumulation: Spleen ([1]; 96 hours after injection): 2.82 ± 0.87 % ID/g
Accumulation: Stomach ([1]; 96 hours after injection): 0.10 ± 0.03 % ID
Accumulation: Blood ([1]; 192 hours after injection): 0.07 ± 0.03 % ID/g
Accumulation: Brain ([1]; 192 hours after injection): 0.04 ± 0.00 % ID/g
Accumulation: Heart ([1]; 192 hours after injection): 0.33 ± 0.01 % ID/g
Accumulation: Intestinal ([1]; 192 hours after injection): 0.13 ± 0.02 % ID/g
Accumulation: Kidney ([1]; 192 hours after injection): 3.47 ± 1.24 % ID/g
Accumulation: LNCaP tumor ([1]; 192 hours after injection): 0.83 ± 0.11 % ID/g
Accumulation: Liver ([1]; 192 hours after injection): 1.20 ± 0.09 % ID/g
Accumulation: Lung ([1]; 192 hours after injection): 0.67 ± 0.05 % ID/g
Accumulation: Muscle ([1]; 192 hours after injection): 0.14 ± 0.09 % ID/g
Accumulation: Pancreas ([1]; 192 hours after injection): 1.04 ± 0.18 % ID/g
Accumulation: Spleen ([1]; 192 hours after injection): 3.46 ± 0.32 % ID/g
Accumulation: Stomach ([1]; 192 hours after injection): 0.05 ± 0.00 % ID
Tumor/kidney ratio compared with [^111In]In-PSMA-DA1 (in words) ([1]; at any time point): lower tumor/kidney ratio
SMILES: O=C([O-])CN1CCN(C(CCC(=O)NCCCC[C@H](NC(=O)N[C@@H](CCC(=O)O)C(=O)O)C(=O)O)C(=O)[O-])CCN(CC(=O)[O-])CCN(C(CCC(=O)Nc2ccccc2)C(=O)[O-])CC1.[111In+3] (some centres unmarked) [[^111In]In-PSMA-DB]
Tumor accumulation compared with [^111In]In-PSMA-DA1 (in words) ([1]; LNCaP tumor): tumor accumulation lower than that of [^111In]In-PSMA-DA1
Effect of excess 2-PMPA on binding (in words) ([2]; 2-PMPA 100 μM): significantly reduced
Binding property LNCaP vs PC-3 cells (in words) [2]: higher binding property to the LNCaP cells than the PC-3 cells
Radioactivity in the eluate, PBS (in words) [3]: no significant radioactivity was observed in the eluate
